Key:
[1] = Solubility in water at 25 °C
[2] = tested on: thioredoxin reductase (TrxR); details: undifferentiated Caco-2/TC7, IC50 concentration, 24 h incubation
Procedure: The Caco-2 cell line (TC7 clone) was seeded in a 25 cm^2 flask (2 × 10^6). […] The procedural guidelines of the supplied kit were followed. […] The outcomes were presented as a percentage representing the TrxR activity relative to the control.

Caco-2/TC7 cells = assay: Annexin V/propidium iodide apoptosis assay, Caco-2/TC7; format: cell-based, human; details: Caco-2/TC7, IC50 concentration; vehicle 12%
Procedure: Study of cell death. After the appropriate incubation, cells were collected and stained with annexin V-FTIC, according to the manufacturer’s instructions. A negative control was prepared, containing unreacted cells to define the basal level of apoptotic and necrotic or dead cells. After incubation, the cells were transferred to flow-cytometry tubes and washed twice with temperate phosphate-buffered saline (PBS), suspended in 100 μL annexin V binding buffer (10 mM Hepes/NaOH, pH 7.4, 140 mM NaCl, 2.5 mM CaCl2), then 5 μL of annexin V-FITC, and 5 μL of PI was added to each 100 μL of cell suspension. After incubation for 15 min at room temperature in the dark, 400 μL of 1× annexin binding buffer was added and analysed by flow cytometry within one hour. The signal intensity was measured using a FACSARIA BD and analysed using FASCDIVA BD.
This inhibition of apoptosis produces a fast growth and proliferation of cancerous cells. The population of early and late apoptotic cells increased to 35% after treatment with complex 1 in comparison with the vehicle-treated cells (12%). […] Additionally, the effect observed after treating the cells with a dosage equal to the IC50 concentration is time-dependent. […]

Caco-2/PD7 cells = assay: Cell cycle analysis (PI, flow cytometry), Caco-2/PD7; format: cell-based, human; details: Caco-2/PD7, IC50 concentration, 72 h
Procedure: Cell cycle analysis. After treatment, the cells were fixed in 70% ice-cold ethanol and stored at 4 °C for 24 h. After centrifugation, the cells were rehydrated in PBS (phosphate-buffered saline) and stained with propidium iodide (PI, 50 μg/mL) solution containing RNase A (100 μg/mL). PI-stained cells were analysed for DNA content in a FACSARRAY BD equipped with an argon ion laser. […] Cell cycle distribution was determined on a linear scale. The percentage of cells in cycle phases was determined using MODIFIT 3.0 verity software.
To investigate the influence of the heteronuclear derivative 1 on the cell cycle distribution of Caco-2 cells, propidium iodide-stained cells were analysed by flow cytometry. The distribution of cells found in each stage of the cell cycle for the control samples was sufficiently homogeneous (Figure 4). For both cell lines, samples analysed after 48 h of incubation had 22% of the cells in the G0/G1 phase, ca. 45% of cells in the synthesis phase, and approximately 30% of cells undergoing the G2 phase or cell division. The low percentage of cells observed in the G0 and G1 phases may be indicative of elevated proliferation and an uncontrolled growth of cancerous cells. It would be of interest to ascertain whether the complexes chosen for the treatments could arrest the cell cycle at phases preceding cell division, thereby inhibiting the proliferation of cancer cells.

[3] = target: T1, bovine serum albumin (BSA) (Bos taurus, UniProt P02769); assay: BSA UV-vis absorption superposition (static vs dynamic quenching); format: binding; details: compound 24 μM, absorption spectra superposition
T1 construct: purchased Sigma Aldrich (St. Louis, MO, USA)
Procedure: Furthermore, examination of the absorption spectra of the fluorophores can be used as a means of characterising static and dynamic quenching. Given the premise that static quenching entails complex formation, alterations in the absorption spectra of BSA are to be anticipated. Conversely, since dynamic quenching only affects the excited states of BSA, its absorption spectra would remain unaltered. The absorption spectra of BSA were recorded in the absence and presence of each compound at a concentration of 24 μM, as well as the absorption spectrum of the compound at the same concentration. A mathematical superposition of the spectrum of BSA and the spectrum of the compounds was calculated.

[4] = tested on: differentiated Caco-2/PD7 cells; assay: Cell viability of differentiated (enterocyte-like) Caco-2/PD7 cells; format: cell-based, human; details: for Cell viability of differentiated Caco-2 cells at 2 × IC50: differentiated Caco-2/PD7, concentration = 2 × IC50, 72 h
Procedure: For cell viability studies of differentiated (enterocyte-like) cells, Caco-2/PD7 cells were seeded on 96-well plates at a density of 4 × 10^3 cells/well and incubated for approximately 10–15 days, changing the culture medium every 3 days, up to reaching confluence—the moment in which the cells were treated with the complexes at concentrations equal to their mean IC50 and 2 × IC50 values.
It is well known that the Caco-2 cell line undergoes spontaneous differentiation into enterocytic-like cells when it reaches confluency. As a result, these cells become polarised, expressing apical and basolateral surfaces with established tight junctions. This allowed for the evaluation of the cytotoxic impact of the complexes on differentiated cells (acting as noncarcinogenic) and a comparison with the viability of undifferentiated cells. Thus, the toxicity of the two heteronuclear compounds has been studied by cell viability experiments by treatment of Caco-2/PD7 cells after differentiation with complexes 1 and 2 at the corresponding concentrations equivalent to IC50 and 2 × IC50 values for 72 h. The results expressed as the % of cell viability observed after treatment with the complexes (or 100% for non-treated control cells) are summarised in Figure S16 (Supplementary Materials). […] However, the cell viability is around 90% even when the cells are treated with double the IC50 concentration.

T1 sequence (P02769 25-607): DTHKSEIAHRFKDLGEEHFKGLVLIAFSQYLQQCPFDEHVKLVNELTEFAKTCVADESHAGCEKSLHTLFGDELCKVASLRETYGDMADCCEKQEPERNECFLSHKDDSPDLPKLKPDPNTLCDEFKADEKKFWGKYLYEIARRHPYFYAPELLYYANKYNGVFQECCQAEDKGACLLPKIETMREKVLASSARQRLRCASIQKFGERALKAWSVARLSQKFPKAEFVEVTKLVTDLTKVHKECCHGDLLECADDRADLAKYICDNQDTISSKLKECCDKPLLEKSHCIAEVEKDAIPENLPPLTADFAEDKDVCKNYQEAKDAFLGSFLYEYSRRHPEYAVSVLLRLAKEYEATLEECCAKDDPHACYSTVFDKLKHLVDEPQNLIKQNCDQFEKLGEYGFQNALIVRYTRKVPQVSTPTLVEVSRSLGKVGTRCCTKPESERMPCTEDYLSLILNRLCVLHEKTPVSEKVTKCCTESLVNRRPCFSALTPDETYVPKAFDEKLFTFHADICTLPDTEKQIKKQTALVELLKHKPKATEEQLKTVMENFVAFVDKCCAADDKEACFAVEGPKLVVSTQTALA

[Cu{Au(Spy)(PTA)}2]PF6 [compound 1]
S 25 °C, H2O [1]: < 0.5 g/L | Effect on TrxR activity [2]: inhibited TrxR activity | Population of early and late apoptotic cells (Caco-2/TC7 cells): 35% | Effect on cell cycle distribution (Caco-2/PD7 cells): not enough living cells being found for the analysis | Quenching / binding mode with BSA [3]: dynamic binding | Cell viability of differentiated Caco-2 cells at 2 × IC50 [4]: around 90%

[Zn{Au(PTA)(Spy)}2](NO3)2 [compound 2]
Quenching / binding mode with BSA [3]: static binding mode may be implied | Cell viability of differentiated Caco-2 cells at 2 × IC50 [4]: 87.66 ± 2.85% | Cell viability of differentiated Caco-2 cells at IC50 ([4]; differentiated Caco-2/PD7, concentration = IC50, 72 h): 92.14 ± 4.22%
